System: Human lung cancer cell line A549 cells
Assay: MTT cytotoxicity assay
Format: cell-based
Conditions: 24 hours incubation
Protocol: Human lung cancer cell line A549 cells were grown in DMEM medium supplemented with 10% (v/v) of fetal bovine serum (FBS) and 1% of penicillin streptomycin. A549 was first incubated at 37° C. for 24 hours with a density of 5000 cells per well. After being washed with phosphate buffered saline (PBS, pH=7.4), A549 cells were incubated together with 200 μL of medium having various concentrations for 24 hours (15 μ[…]). Three sets of parallel replicates were prepared for each concentration. Then, the medium was removed and replaced with 20 μL of MTT solution (5 mg/mL). A549 cells were further incubated for 3 hours. The medium having MTT was removed and replaced with 100 μL of DMSO. The plate was then shaken for 10 minutes. To assess cell viability, the optical density of the mixture at 492 nm was measured by an enzyme-linked immunosorbent assay spectrophotometer (infinite […]). For labeling, A549 cells were incubated at 37° C. for 24 hours in a cell culture dish with glass bottom at a density of 5000 cells/well and then mixed with prepared FCNs samples. […] The cell culture dish with glass bottom was covered with a tin foil until cell images were obtained by fluorescence microscopy under excitation at 408 nm, 488 nm and 561 nm.

## CCCCCCCCC(=O)O [nonanoic acid]
Concentration greater than 3840 μM
  toxicity to the cells (cytotoxicity, MTT): significant toxicity to the cells
Low concentration (15-240 μM)
  effect on cell viability (cytotoxicity, MTT): almost no effect on cell viability

From patent publication US11104589B2, “Recycling method of amphiphilic surface-active pollutants in water” (INSTITUTE OF PROCESS ENGINEERING, CHINESE ACADEMY OF …, priority 2018, dated 2021)
